Assay results as given in article PMC3976407, “Inhibition of Fatty Acid Binding Proteins Elevates Brain Anandamide Levels and Produces Analgesia” (PLoS ONE, 2014).
Where two headings read alike, the source gives them in different places.

Experiments:
[1] = system: rectal temperature in mice; assay: Rectal temperature; assay type: in vivo, mouse; conditions: 20 mg/kg, i.p., baseline vs 90 min
Method: Rectal temperature was measured at baseline and 90 min following vehicle or drug administration, by inserting a thermocouple probe 1.5 cm into the rectum and the temperature was read using a thermocouple meter (Kent Scientific).

[2] = system: formalin-induced nociception in mice; assay: Formalin test; assay type: in vivo, mouse; conditions: 20 mg/kg, i.p.
Method: Mice were habituated to the observation chamber (Plexiglas box, 25 cm×25 cm×25 cm) for 30 min prior to formalin injection. Mice were administered FABP inhibitors 60 min prior to formalin. The animals subsequently received an injection of formalin (2.5% in saline, 20 μl) into the plantar surface of the right hind paw using a 30 gauge needle and were immediately placed back into the observation chamber and nocifensive behavior (time spent licking or biting the paw) was recorded for 60 min. Nocifensive behavior was scored during the first phase (0–5 min) and the second phase (∼15–45 min) of the formalin test.

[3] = target: FABP7 (Homo sapiens, UniProt O15540); assay: NBD-stearate fluorescence displacement binding
Sequence of FABP7 (O15540 whole entry, species assumed): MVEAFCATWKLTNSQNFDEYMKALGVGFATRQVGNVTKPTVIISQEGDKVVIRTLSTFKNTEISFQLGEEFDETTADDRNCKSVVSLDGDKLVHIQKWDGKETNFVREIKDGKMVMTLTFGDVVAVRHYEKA
Method: Inhibitory constant (Ki) values were elucidated utilizing NBD-stearate fluorescence displacement as described previously [9], [31]. The tests were performed in 96-well plates containing inhibitors (0.1 – 50.0 μM), FABP, and NBD-stearate. Fluorescence intensity was measured with a FLUOstar OPTIMA spectrofluorometer with excitation and emission wavelengths of 460 and 544 nm, respectively.

[4] = Pharmacokinetics: SBFI26 levels in plasma and brain; assay type: in vivo; conditions: mouse, 20 mg/kg, i.p.; for half-life: ip
Method: Mice were injected with SBFI26 (20 mg/kg, i.p.) and were subsequently rapidly euthanized by decapitation at the indicated time points. The brain was rapidly removed and submerged in liquid nitrogen while the blood was collected into a K2-EDTA collection tube (Fisher). Plasma was isolated by centrifugation of the blood and 50 μl of the plasma was combined with 150 μl acetonitrile and centrifuged to remove the resulting protein pellet. Subsequently, 50 μl of water was added to 50 μl of the supernatant and 10 μl was injected for analysis into a Thermo TSQ Quantum Access Triple Quadrupole mass spectrometer (ThermoFisher). LC separation was achieved on a Luna C18 (150×2 mm) column. Mobile phase A consisted of 100% H20 while mobile phase B was composed of 100% acetonitrile. The flow rate was 200 μl/min. A linear gradient was used and started at 50% B for 2 min, then ramped to 100% B in 8 min., with a 2 min hold at 100% B. The system was then equilibrated at 50% B for a cycle time of 20 min. The mass spectrometer was operated in the negative ion mode with the high voltage set at −3.5 kV. The sheath pressure was 20 and the capillary was set to 270 °C. Multiple reaction monitoring (MRM) was used with the transition m/z 421 to 277 at 29 eV as the quantitation channel, while m/z 421 to 205 at 17 eV was employed as a conformation channel. SBFI26 quantification was performed using an external calibration curve.

[5] = system: locomotor activity in mice; assay: Locomotor activity; assay type: in vivo, mouse; conditions: 20 mg/kg, i.p., measured 90 min after administration
Method: […] Locomotor activity was recorded for 5 min by a video camera suspended above the chamber and subsequently scored by an observer blinded to the treatment conditions. A grid crossing was scored when both hind legs of the animal crossed the border of each grid square.

[6] = target: T1, FAAH (Mus musculus, UniProt O08914); assay: AEA hydrolysis by brain and liver homogenates after injection of inhibitor; assay type: biochemical; conditions: mouse brain and liver homogenates harvested 60 min after 20 mg/kg, i.p.; 30 μM [14C]AEA
T1 construct: from tissue; host or cells: mouse brain and liver homogenates
T1 sequence (O08914 1-579): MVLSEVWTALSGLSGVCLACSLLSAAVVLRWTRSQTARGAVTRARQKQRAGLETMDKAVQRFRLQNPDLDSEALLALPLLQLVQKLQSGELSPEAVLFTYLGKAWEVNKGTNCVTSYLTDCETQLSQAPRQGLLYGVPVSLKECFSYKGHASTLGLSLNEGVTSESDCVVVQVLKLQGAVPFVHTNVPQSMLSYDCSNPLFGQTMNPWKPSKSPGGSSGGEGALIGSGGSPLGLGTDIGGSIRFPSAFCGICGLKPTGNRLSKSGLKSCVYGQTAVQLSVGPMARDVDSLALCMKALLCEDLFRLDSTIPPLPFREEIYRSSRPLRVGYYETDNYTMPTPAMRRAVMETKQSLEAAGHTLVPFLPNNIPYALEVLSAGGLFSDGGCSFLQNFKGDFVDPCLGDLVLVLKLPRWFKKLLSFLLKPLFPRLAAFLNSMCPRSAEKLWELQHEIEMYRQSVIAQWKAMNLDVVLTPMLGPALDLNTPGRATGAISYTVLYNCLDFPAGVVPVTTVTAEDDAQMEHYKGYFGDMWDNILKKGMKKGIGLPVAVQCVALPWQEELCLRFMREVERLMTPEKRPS
Method: AEA and 2-OG hydrolysis was determined using modified protocols to those described previously, [35]. Mice were injected with inhibitors (20 mg/kg, i.p.) and the brains and livers were harvested 60 min later. The tissue homogenates were subsequently incubated with 30 μM [^14C]AEA or 10 μM [^3H]2-OG for 30 min. Reactions were stopped with two volumes of chloroform:methanol (1∶1) and the methanol phase was counted using a Beckman LS6500 scintillation counter.

[7] = system: brain endocannabinoid levels; assay: Lipid quantification of brain NAEs and 2-AG; assay type: in vivo; conditions: mouse, 20 mg/kg, i.p.
Method: Quantification of endogenous NAEs and 2-AG were performed as previously described with minor modifications. Mice were rapidly euthanized by decapitation and their brains flash frozen in liquid nitrogen. The brains were subsequently thawed, weighed, and homogenized in 8 ml of 2∶1∶1 CHCl3:MeOH:Tris (50 mM, pH 8) in the presence of 4 ng d4-PEA, 4 ng d2-OEA, 400 pg d4-AEA, and 40 ng d5-2-AG. Following centrifugation at 4°C, the organic layer was removed and brought up to 8 ml with the same buffer and centrifuged again. The resulting organic layer was dried down with argon and resuspended with 100 μl of 2∶1 CHCl3:MeOH and 10 μl was injected into the Thermo TSQ Quantum Access Triple Quadropole mass spectrometer. LC separation was achieved on a Gemini C18 (50×2 mm×5 μm) equipped with a Gemini C18 SecurityGuard precolumn (4 mm length ×2 mm internal diameter). Mobile phase A consisted of 95∶5% v:v H20:MeOH while mobile phase B was composed of 60∶35∶5 v:v:v i-PrOH:MeOH:H2O and quantification was performed in the positive ion mode with the voltage set at 4 kV. 0.1% formic acid was added to assist in ionization. The sheath pressure was 30 and the capillary was set at 270 °C. The flow rate was 100 μl/min. The gradient started at 0% B and increased to 100% B over 15 min followed by an isocratic gradient of 100% B for 10 min, and was equilibrated for 15 min at 0% B.

- Rectal temperature [1]: does not reduce
- Ki [3]: 400 nM
- half-life ([4]; brain, read-out: Brain half-life (converted)): ~180 min
- Brain levels relative to plasma levels [4]: lower
- Time of peak brain level ([4]; brain): within one hour
- Time of peak plasma level ([4]; plasma): within one hour
- Time by which levels return to baseline ([4]; plasma and brain): ≤ 24 h
- half-life ([4]; plasma, read-out: Plasma half-life (converted)): ~180 min
- Locomotor activity [5]: does not alter
- Inhibition of AEA hydrolysis [6]: did not inhibit
Compound: O=C(O)C1C(c2ccccc2)C(C(=O)Oc2cccc3ccccc23)C1c1ccccc1 (stereo not drawn) [SBFI26, alpha-2,4-diphenylcyclobutane-1,3-dicarboxylic acid mono-1-naphthyl ester]
- Effect upon first phase of formalin-induced nociception ([2]; first phase 0–5 min): reduced
- Effect upon second phase of formalin-induced nociception ([2]; second phase ∼15–45 min): reduced
- Brain 2-AG levels ([7]; 90 min): unaffected
- Brain OEA levels ([7]; 90 min): unaffected
- Brain PEA levels ([7]; 90 min): unaffected
- Brain AEA levels ([7]; tissues harvested 90 min after administration): significantly elevated
